Reference: US8293682B2, “Growth regulators for gramineous weeds” (Rikengreen Co., Ltd., priority 2008, dated 2012)

Columns and labels:
[1] = system: annual bluegrass (Poa annua L.); conditions: cited from earlier work
[2] = system: annual bluegrass (Poa annua L.); test: Test Example 3: number of emerged ears and leaves, poly-cup, two applications; assay type: in vivo; conditions: for Ear (number of emerged ears in the cup) / [Leaf] (number of leaves within 6 cm×6 cm): 2nd application after 29 days
Method: At the initial stage of the ear emergence of annual bluegrass (Poa annua L.) grown in a poly-cup of 11 cm×11 cm, benzyladenine (Beanine for painting; made by Rikengreen; containing 1% benzyladenine) and ethephon (Ethrel 10 soluble concentrate; Nissan Chemical Industries; containing 10% ethephon) were diluted in a predetermined amount of water, and a spreader (Riken Sprayzer (registered trade mark); made by Rikengreen) was added so as to be 1/1,000-fold concentration; the respectively diluted solutions were applied by atomization at a dose as indicated in Table (scattered solution: 200 mL/m^2), and after a lapse of 29 days, the 2nd application was carried out. Then, the number of emerged ears of annual bluegrass (Poa annua L.) in the cup was counted. Further, the number of leaves [Leaf] of annual bluegrass (Poa annua L.) was counted within the area of 6 cm×6 cm in the cup. The test was carried out serially. […] Dose means the amount at a single application.

[3] = Day 46, Benzyladenine + Ethephon 0 + 20 mg a.i./m^2
[4] = Day 46, Benzyladenine + Ethephon 0 + 40 mg a.i./m^2
[5] = Day 46, Benzyladenine + Ethephon 0 + 80 mg a.i./m^2
[6] = Day 46, Benzyladenine + Ethephon 2 + 0 mg a.i./m^2
[7] = Day 46, Benzyladenine + Ethephon 4 + 0 mg a.i./m^2

In the case of O=P(O)(O)CCCl [Ethephon, 2-chloroethylphosphonic acid], the “growth of annual bluegrass growing among Kentucky bluegrass” value ([1]; Non-patent document 3, dose of 3.2 kg/hectare) is given as “slowed growth”, the “ear emergence of annual bluegrass growing among bent grass” value ([1]; Non-patent document 4, 3.8-7.6 kg/hectare) is given as “inhibits the ear emergence” and the “Ear (number of emerged ears in the cup)” value ([2]; Day 23, Benzyladenine + Ethephon 0 + 20 mg a.i./m^2) is given as 30. For the same molecule, the “Ear (number of emerged ears in the cup)” value ([2]; Day 23, Benzyladenine + Ethephon 0 + 40 mg a.i./m^2) was 23, the “Ear (number of emerged ears in the cup)” value ([2]; Day 23, Benzyladenine + Ethephon 0 + 80 mg a.i./m^2) was 13 and the “Ear (number of emerged ears in the cup)” value [2, 3] was 34. The “[Leaf] (number of leaves within 6 cm×6 cm)” value (shortened to “[Leaf]”) [2, 3] was “[90]”, the “Ear (number of emerged ears in the cup)” value [2, 4] was 27 and the “[Leaf]” value [2, 4] was “[88]”. For the same molecule, the “Ear (number of emerged ears in the cup)” value [2, 5] was 29, the “[Leaf]” value [2, 5] was “[79]” and the “Ear (number of emerged ears in the cup)” value ([2]; Day 53, Benzyladenine + Ethephon 0 + 20 mg a.i./m^2) was 34. For the same molecule, the “Ear (number of emerged ears in the cup)” value ([2]; Day 53, Benzyladenine + Ethephon 0 + 40 mg a.i./m^2) was 30 and the “Ear (number of emerged ears in the cup)” value ([2]; Day 53, Benzyladenine + Ethephon 0 + 80 mg a.i./m^2) was 41.

With c1ccc(CNc2ncnc3nc[nH]c23)cc1 [Benzyladenine, 6-benzylaminopurine] the “Ear (number of emerged ears in the cup)” value ([2]; Day 23, Benzyladenine + Ethephon 2 + 0 mg a.i./m^2) was 12, the “Ear (number of emerged ears in the cup)” value ([2]; Day 23, Benzyladenine + Ethephon 4 + 0 mg a.i./m^2) was 2 and the “Ear (number of emerged ears in the cup)” value [2, 6] was 54. For the same molecule, the “[Leaf]” value [2, 6] was “[105]”, the “Ear (number of emerged ears in the cup)” value [2, 7] was 55 and the “[Leaf]” value [2, 7] was “[108]”. The “Ear (number of emerged ears in the cup)” value ([2]; Day 53, Benzyladenine + Ethephon 2 + 0 mg a.i./m^2) was 43, the “Ear (number of emerged ears in the cup)” value ([2]; Day 53, Benzyladenine + Ethephon 4 + 0 mg a.i./m^2) was 48 and the “inhibition of ear emergence (summary in words)” value ([2]; Test Example 3) was “strongly inhibits the ear emergence”. The “number of leaves (bud number) (summary in words)” value ([2]; Test Example 3) was “increases the number of leaves”.
